Data reported in ChEMBL document CHEMBL4665653, “VU6005806/AZN-00016130, an advanced M positive allosteric modulator (PAM) profiled as a potential preclinical development candidate” (Bioorg Med Chem Lett, 2019).

How the values were obtained:
[1] = Distribution coefficient, log D of the compound pH 7.5; assay type: physicochemical; settings: octanol/water
Cytochrome P450 3A4 = Cytochrome P450 3A4 (Homo sapiens, UniProt P08684); assay: Inhibition of CYP3A4 (unknown origin); assay type: ADME
[2] = molecular target: Mu-type opioid receptor (Homo sapiens) (UniProt P35372); assay: Displacement of [3H]-Diprenorphine from recombinant full length human mu opioid receptor expressed in CHO-K1 cells assessed as residual binding level for radioligand at 10 uM incubated for 60 mins by scintillation counting analysis relative to control; assay type: cell-based
[3] = molecular target: Muscarinic acetylcholine receptor M3 (Homo sapiens, UniProt P20309); assay: Displacement of [3H]N-Methylscopolamine from full length human recombinant muscarinic M3 receptor expressed in CHOK1 cells assessed as residual binding level for radioligand at 10 uM measured after 120 mins by radiometric scintillation analysis relative to control; assay type: cell-based; settings: CHO-K1
[4] = molecular target: Alpha-1B adrenergic receptor (Homo sapiens) (UniProt P35368); assay: Displacement of [3H]-Prazosin from human adrenergic alpha 1B receptor expressed in Chem-1 cells assessed as residual binding level for radioligand at 10 uM incubated for 60 mins by radiometric scintillation analysis relative to control; assay type: cell-based
[5] = molecular target: L-type calcium channel Cav1.2, benzothiazepine binding site (Rattus norvegicus, UniProt P22002); assay: Displacement of [3H]-Diltiazem from L-type calcium channel Cav1.2 benzothiazepine binding site in Wistar rat brain membrane assessed as residual binding level for radioligand at 10 uM incubated for 180 mins by radiometric scintillation analysis relative to control; assay type: cell membranes; settings: probe [3H]-Diltiazem, read-out: Activity
Rattus norvegicus [6] = species: Rattus norvegicus; assay: Displacement of [3H]-Rolipram from phosphodiesterases PDE4 receptor rolipram binding site in Wistar rat brain assessed as residual binding level for radioligand at 10 uM incubated for 60 mins; assay type: tissue-based
Canis lupus familiaris = species: Canis lupus familiaris; assay: Positive allosteric modulation of dog M4 receptor relative to acetylcholine
[7] = molecular target: Alpha-1D adrenergic receptor (Homo sapiens) (UniProt P25100); assay: Displacement of [3H]-Prazosin from recombinant full length human adrenergic alpha 1D receptor assessed as residual binding level for radioligand at 10 uM incubated for 60 mins by radiometric scintillation analysis relative to control
[8] = molecular target: Glutamate NMDA receptor (Rattus norvegicus) (UniProt P35439+Q00959+Q00960+Q00961+Q62645+Q8VHN2+Q9R1M7); assay: Displacement of [3H]-CGP39653 from NMDA glutamate receptor in Wistar rat brain assessed as residual binding level for radioligand at 10 uM incubated for 20 mins by scintillation counting analysis relative to control; assay type: tissue-based
[9] = molecular target: 5-hydroxytryptamine receptor 2B (Homo sapiens) (UniProt P41595); assay: Displacement of [3H]-LSD from recombinant full length human 5HT2B receptor expressed in CHO-K1 cells assessed as residual binding level for radioligand at 10 uM incubated for 60 mins by; assay type: cell-based
[10] = molecular target: Muscarinic acetylcholine receptor M1 (Rattus norvegicus, UniProt P08482); assay: Positive allosteric modulation of rat M1 receptor
[11] = molecular target: Muscarinic acetylcholine receptor M4 (Rattus norvegicus) (UniProt P08485); assay: Positive allosteric modulation of rat M4 receptor relative to acetylcholine; settings: filed as positive allosteric modulator
[12] = molecular target: Acetylcholine receptor subunit alpha (Homo sapiens) (UniProt P02708); assay: Displacement of [125I]-alpha-Bungarotoxin from full length nAChR alpha1 receptor in human RD cell membranes assessed as residual binding level for radioligand at 10 uM measured after 120 mins by radiometric scintillation analysis relative to control
[13] = Fraction unbound in human plasma; assay type: ADME, cell-free
[14] = molecular target: Endothelin receptor type B (Homo sapiens) (UniProt P24530); assay: Displacement of [125I]endothelin-1 from recombinant full length human recombinant ETB receptor expressed in CHO-K1 cells assessed as residual binding level for radioligand at 10 uM measured after 120 mins by radiometric scintillation analysis relative to control; assay type: cell-based
[15] = Brain to plasma permeability coefficient, Kp in cynomolgus monkey; assay type: ADME, Macaca fascicularis
Mus musculus = species: Mus musculus; assay: Displacement of [3H]-PDBu from phorbol ester receptor in ICR mouse brain assessed as residual binding level for radioligand at 10 uM incubated for 60 mins by scintillation counting analysis relative to control; assay type: tissue-based
[16] = molecular target: D(4) dopamine receptor (Homo sapiens) (UniProt P21917); assay: Displacement of [3H]spiperone from full length recombinant human D4.4 receptor expressed in CHO cells assessed as residual binding level for radioligand at 10 uM incubated for 120 mins by radiometric scintillation analysis relative to control; assay type: cell-based
Rattus norvegicus [17] = species: Rattus norvegicus; assay: Displacement of [125I]-Triiodothyronine from thyroid hormone receptors in Sprague-Dawley rat liver assessed as residual binding level for radioligand at 10 uM incubated for 1080 mins by radiometric scintillation analysis relative to control; assay type: tissue-based
[18] = molecular target: D(3) dopamine receptor (Homo sapiens) (UniProt P35462); assay: Displacement of [3H]spiperone from full length human dopamine D3 receptor expressed in CHO cells assessed as residual binding level for radioligand at 10 uM incubated for 60 mins by radiometric scintillation analysis relative to control; assay type: cell-based
[19] = Volume of distribution at steady state in rat; assay type: ADME; settings: in vivo, read-out: Vdss
[20] = Volume of distribution at steady state in dog; assay type: ADME, Canis lupus familiaris; settings: in vivo, read-out: Vdss
[21] = molecular target: Interleukin-1 receptor type 1 (Homo sapiens) (UniProt P14778); assay: Displacement of [125I]-Interleukin 1beta from human interleukin IL-1 R1 receptor assessed as residual binding level for radioligand at 10 uM incubated for 1200 mins by scintillation counting analysis relative to control
[22] = molecular target: B1 bradykinin receptor (Homo sapiens) (UniProt P46663); assay: Displacement of [3H]desArg10-KD from human recombinant Bradykinin B1 receptor expressed in CHO-K1 cells assessed as residual binding level for radioligand at 10 uM incubated for 60 mins by radiometric scintillation analysis relative to control; assay type: cell-based
[23] = Plasma clearance in cynomolgus monkey; assay type: ADME, Macaca fascicularis; settings: read-out: CL(app)
Rattus norvegicus [24] = species: Rattus norvegicus; assay: Displacement of [3H]GABA from GABA receptor in Wistar rat brain assessed as residual binding level for radioligand at 10 uM after 20 mins by radiometric scintillation analysis relative to control; assay type: tissue-based
Rattus norvegicus [25] = species: Rattus norvegicus; assay: Displacement of [3H]-TCP from NMDA glutamate receptor phencyclidine binding site in Wistar rat brain assessed as residual binding level for radioligand at 10 uM incubated for 45 mins by scintillation counting analysis relative to control; assay type: tissue-based
[26] = molecular target: Beta-1 adrenergic receptor (Homo sapiens) (UniProt P08588); assay: Displacement of [125I]Cyanopindolol from recombinant full length human beta1 adrenoceptor expressed in CHO-K1 cells assessed as residual binding level for radioligand at 10 uM after 120 mins by radiometric scintillation analysis relative to control; assay type: cell-based
[27] = molecular target: Cysteinyl leukotriene receptor 1 (Homo sapiens) (UniProt Q9Y271); assay: Displacement of [3H]LTD4 from full length recombinant human CysLT1 Leukotriene receptor expressed in CHO-K1 cells assessed as residual binding level for radioligand at 10 uM incubated for 30 mins radiometric scintillation analysis relative to control; assay type: cell-based
[28] = molecular target: Voltage-dependent N-type calcium channel subunit alpha-1B (Rattus norvegicus) (UniProt Q02294); assay: Displacement of [125I]-w-conotoxin GIVA from N-type calcium channel Cav2.2 in Wistar rat brain membrane assessed as residual binding level for radioligand at 10 uM incubated for 30 mins by radiometric scintillation analysis relative to control; assay type: cell membranes
[29] = Oral bioavailability in rat at 3 mg/kg administered as suspension; assay type: ADME, organism-based; settings: in vivo

Sequence of Muscarinic acetylcholine receptor M4 (Rattus norvegicus) (P08485 whole entry): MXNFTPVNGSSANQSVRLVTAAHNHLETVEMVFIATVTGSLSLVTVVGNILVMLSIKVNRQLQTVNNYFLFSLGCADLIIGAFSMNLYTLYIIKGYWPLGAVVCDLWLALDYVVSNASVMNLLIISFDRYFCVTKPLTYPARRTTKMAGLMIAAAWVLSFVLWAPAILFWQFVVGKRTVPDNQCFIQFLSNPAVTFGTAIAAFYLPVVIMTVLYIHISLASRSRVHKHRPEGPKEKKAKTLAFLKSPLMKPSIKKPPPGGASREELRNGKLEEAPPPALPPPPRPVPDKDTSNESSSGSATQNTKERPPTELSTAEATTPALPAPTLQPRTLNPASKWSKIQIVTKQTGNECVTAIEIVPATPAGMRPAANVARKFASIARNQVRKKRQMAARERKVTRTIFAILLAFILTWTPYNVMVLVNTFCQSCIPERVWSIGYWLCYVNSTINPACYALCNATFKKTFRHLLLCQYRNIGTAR
Sequence of Beta-1 adrenergic receptor (Homo sapiens) (P08588 whole entry, looked up): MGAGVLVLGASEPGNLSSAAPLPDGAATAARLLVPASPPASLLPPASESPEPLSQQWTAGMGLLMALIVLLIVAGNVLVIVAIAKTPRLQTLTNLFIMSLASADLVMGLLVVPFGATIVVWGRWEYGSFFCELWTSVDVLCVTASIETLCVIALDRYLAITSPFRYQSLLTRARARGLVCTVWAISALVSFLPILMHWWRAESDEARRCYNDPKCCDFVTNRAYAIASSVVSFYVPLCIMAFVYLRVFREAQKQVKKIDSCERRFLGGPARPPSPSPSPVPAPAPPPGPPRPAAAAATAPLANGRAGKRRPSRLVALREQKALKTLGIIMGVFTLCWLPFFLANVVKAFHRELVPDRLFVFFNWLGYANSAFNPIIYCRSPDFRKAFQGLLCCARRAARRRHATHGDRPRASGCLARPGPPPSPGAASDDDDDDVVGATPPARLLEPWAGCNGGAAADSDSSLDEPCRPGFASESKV
Sequence of D(3) dopamine receptor (Homo sapiens) (P35462 whole entry): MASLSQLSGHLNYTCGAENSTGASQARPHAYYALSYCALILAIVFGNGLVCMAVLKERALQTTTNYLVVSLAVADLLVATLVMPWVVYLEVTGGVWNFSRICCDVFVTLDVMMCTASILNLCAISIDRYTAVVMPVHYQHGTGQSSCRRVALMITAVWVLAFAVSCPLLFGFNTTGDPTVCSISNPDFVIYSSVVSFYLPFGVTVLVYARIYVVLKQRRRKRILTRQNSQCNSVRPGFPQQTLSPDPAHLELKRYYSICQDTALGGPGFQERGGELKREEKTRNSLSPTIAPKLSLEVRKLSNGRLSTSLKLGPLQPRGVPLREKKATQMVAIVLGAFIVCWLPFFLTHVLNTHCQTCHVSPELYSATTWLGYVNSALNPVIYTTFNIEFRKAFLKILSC
Sequence of Voltage-dependent N-type calcium channel subunit alpha-1B (Rattus norvegicus) (Q02294 whole entry, looked up): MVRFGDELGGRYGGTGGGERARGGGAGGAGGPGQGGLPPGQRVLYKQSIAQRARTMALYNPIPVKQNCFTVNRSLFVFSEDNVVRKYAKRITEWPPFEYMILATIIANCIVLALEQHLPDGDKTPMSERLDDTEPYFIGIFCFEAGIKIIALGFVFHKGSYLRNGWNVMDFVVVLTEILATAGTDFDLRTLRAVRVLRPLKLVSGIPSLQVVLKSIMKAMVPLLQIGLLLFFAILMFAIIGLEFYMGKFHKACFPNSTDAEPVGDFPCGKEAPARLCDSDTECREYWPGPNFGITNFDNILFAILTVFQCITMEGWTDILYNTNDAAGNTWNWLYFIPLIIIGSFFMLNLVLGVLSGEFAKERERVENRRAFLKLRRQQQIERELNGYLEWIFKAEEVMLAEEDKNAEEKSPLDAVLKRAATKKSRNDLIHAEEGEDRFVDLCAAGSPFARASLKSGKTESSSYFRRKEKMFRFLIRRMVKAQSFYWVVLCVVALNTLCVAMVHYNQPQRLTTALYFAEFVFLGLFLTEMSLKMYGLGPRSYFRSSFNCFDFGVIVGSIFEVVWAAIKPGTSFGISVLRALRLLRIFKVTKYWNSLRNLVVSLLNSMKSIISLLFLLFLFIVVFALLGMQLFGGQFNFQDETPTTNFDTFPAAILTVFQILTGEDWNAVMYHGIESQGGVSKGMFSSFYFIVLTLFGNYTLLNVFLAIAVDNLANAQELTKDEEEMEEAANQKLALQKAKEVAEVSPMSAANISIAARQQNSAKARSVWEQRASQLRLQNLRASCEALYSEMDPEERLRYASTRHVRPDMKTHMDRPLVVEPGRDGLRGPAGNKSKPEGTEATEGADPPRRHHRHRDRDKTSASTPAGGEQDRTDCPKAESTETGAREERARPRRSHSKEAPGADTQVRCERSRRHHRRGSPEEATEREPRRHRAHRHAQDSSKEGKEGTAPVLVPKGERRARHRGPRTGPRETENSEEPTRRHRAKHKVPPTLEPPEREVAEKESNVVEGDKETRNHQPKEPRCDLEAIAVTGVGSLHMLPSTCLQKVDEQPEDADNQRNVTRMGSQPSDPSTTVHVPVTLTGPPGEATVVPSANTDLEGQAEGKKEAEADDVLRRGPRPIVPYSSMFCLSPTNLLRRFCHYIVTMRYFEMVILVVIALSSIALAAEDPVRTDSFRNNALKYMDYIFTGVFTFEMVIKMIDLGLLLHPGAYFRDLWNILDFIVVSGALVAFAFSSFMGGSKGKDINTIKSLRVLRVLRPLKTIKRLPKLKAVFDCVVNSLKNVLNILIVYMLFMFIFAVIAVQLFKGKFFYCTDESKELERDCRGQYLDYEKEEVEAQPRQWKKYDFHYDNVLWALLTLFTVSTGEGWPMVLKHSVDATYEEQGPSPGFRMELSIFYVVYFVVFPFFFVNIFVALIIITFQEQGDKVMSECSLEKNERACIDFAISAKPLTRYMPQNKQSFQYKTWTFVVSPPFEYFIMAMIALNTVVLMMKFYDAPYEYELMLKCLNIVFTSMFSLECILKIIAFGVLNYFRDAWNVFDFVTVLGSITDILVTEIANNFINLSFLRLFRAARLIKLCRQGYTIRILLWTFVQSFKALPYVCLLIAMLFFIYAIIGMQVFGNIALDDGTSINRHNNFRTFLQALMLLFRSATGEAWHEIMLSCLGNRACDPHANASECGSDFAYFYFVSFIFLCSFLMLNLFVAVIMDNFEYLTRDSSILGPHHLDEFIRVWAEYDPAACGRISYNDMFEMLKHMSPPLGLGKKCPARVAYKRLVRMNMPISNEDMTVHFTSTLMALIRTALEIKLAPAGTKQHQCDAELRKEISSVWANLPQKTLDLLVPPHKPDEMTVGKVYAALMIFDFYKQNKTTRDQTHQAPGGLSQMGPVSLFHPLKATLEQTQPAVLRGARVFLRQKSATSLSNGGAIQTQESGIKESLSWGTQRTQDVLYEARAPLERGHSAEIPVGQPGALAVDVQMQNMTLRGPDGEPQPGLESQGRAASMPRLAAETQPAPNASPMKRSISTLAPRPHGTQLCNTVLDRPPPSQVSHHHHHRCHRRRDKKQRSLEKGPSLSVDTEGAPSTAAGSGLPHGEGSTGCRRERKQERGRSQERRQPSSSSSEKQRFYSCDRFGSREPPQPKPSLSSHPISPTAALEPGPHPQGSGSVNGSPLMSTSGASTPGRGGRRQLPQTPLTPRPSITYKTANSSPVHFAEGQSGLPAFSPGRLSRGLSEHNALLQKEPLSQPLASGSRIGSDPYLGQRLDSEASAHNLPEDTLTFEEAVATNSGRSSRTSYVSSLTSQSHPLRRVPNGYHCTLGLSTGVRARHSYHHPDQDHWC
Sequence of Cytochrome P450 3A4 (P08684 whole entry): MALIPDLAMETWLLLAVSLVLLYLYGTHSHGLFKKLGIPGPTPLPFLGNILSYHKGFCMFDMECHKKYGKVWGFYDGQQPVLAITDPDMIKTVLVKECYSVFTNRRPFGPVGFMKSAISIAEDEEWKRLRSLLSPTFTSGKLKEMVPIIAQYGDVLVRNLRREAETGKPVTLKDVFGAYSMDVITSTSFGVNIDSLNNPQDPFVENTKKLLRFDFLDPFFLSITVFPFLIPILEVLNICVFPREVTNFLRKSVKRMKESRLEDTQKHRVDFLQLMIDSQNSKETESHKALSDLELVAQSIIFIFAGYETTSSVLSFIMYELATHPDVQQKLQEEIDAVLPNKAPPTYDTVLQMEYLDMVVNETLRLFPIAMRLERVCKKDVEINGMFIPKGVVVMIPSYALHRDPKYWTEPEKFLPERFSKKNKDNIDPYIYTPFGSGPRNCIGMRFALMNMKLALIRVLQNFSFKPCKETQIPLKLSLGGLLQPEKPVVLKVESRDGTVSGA
Sequence of Muscarinic acetylcholine receptor M1 (P08482 whole entry): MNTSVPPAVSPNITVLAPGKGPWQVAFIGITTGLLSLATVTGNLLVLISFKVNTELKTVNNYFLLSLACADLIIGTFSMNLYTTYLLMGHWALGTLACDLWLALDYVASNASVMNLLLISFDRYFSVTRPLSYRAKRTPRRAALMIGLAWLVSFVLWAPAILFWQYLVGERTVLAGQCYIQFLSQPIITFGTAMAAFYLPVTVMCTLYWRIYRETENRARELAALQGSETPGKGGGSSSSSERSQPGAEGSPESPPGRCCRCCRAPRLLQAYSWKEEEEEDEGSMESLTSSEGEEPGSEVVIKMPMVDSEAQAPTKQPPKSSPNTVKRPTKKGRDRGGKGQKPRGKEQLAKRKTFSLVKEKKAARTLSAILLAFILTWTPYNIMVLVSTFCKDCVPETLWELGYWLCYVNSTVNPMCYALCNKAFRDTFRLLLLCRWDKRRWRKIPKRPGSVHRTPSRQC
Sequence of Mu-type opioid receptor (Homo sapiens) (P35372 whole entry): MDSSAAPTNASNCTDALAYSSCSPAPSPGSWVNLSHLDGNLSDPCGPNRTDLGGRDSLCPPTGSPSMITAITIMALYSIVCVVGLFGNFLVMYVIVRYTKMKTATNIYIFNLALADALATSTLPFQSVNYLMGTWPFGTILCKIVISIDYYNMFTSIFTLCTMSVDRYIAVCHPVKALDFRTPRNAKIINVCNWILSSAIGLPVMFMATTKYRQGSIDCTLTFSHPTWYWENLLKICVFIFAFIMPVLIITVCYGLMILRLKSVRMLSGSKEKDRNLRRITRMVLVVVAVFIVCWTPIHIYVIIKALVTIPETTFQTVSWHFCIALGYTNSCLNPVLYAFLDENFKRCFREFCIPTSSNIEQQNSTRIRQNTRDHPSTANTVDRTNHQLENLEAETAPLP

Compound: COc1nnc2sc(C(=O)NC3CN(c4ncc(C(F)(F)F)cn4)C3)c(N)c2c1C
- logD [1]: 3.73
- IC50 (Cytochrome P450 3A4): > 30 µM
- Activity [2]: > 50%
- Activity [3]: > 50%
- Activity [4]: > 50%
- activity at 3 h, 10 µM [5]: > 50%
- Activity (Rattus norvegicus [6]): > 50%
- %max (Canis lupus familiaris): 37%
- Activity [7]: > 50%
- Activity [8]: > 50%
- Activity [9]: > 50%
- EC50 [10]: > 30 µM
- %max [11]: 93%
- Activity [12]: > 50%
- fraction unbound [13]: 0.02
- Activity [14]: > 50%
- Kp [15]: 1.7
- Activity (Mus musculus): > 50%
- Activity [16]: > 50%
- Activity (Rattus norvegicus [17]): > 50%
- Activity [18]: > 50%
- Vd [19]: 1.81 L/kg
- Vd [20]: 0.57 L/kg
- Activity [21]: > 50%
- Activity [22]: > 50%
- clearance [23]: 16 mL/min/kg
- Activity (Rattus norvegicus [24]): > 50%
- Activity (Rattus norvegicus [25]): > 50%
- Activity [26]: > 50%
- Activity [27]: > 50%
- Activity [28]: > 50%
- bioavailability [29]: 57%
